Patent publication US5248696A, “Composition and method for treating tumors” (World Research Institute for Science and Technology, Inc., priority 1991, dated 1993)

Set-up: species or system female CD1 mice
Settings: mouse, in vivo
Procedure: In accordance with the procedure outlined in Canc. Res. 47: 3707-3711, female CD1 mice (obtained from Charles River Laboratories) were inoculated intraperitoneally with 10^6 S 180 cells in 100 microliters of phosphate buffered saline (PBS). Controls received PBS only. Both tumor and control mice were divided into three groups of ten mice per group. Rosin and technical grade abietic acid were each dissolved in ethanol at a concentration of 200 mg/ml which was diluted with 10% newborn calf serum in PBS to a ratio of 1:20 to form respective suspensions. Untreated groups (both tumor and control mice) were inoculated intraperitoneally with 1 ml of vehicle alone while […] and the technical grade abietic acid treated groups (both tumor and control) were intraperitoneally inoculated with 1 ml (10 mg) of the technical grade abietic acid suspension, the doses being administered immediately, and thereafter on the third, sixth and ninth days. Data from animals which expired within two hours of any inoculation (at zero, three, six and nine days) were discarded. […]

Substance: rosin
- adipose tissue deposition: increased deposition of adipose tissue
